From patent publication US11382328B2, “Rapid drug discovery methods for pathogen inactivation” (priority 2019, dated 2022)

Test system: E. coli strain W3110
Assay: Synergy assays: Biolog chemical sensitivity panels with Group IB metal, coefficient of drug interaction (CDI) from relative growth
Type: cell-based
Conditions: for CDI (coefficient of drug interaction), copper mixed with biocide: Copper (mM) section; for CDI (coefficient of drug interaction), gold + biocide: Gold (μM)
[1] = 1st of 3 copper concentrations (value not shown), 1st of four biocide concentrations
[2] = 1st of 3 copper concentrations (value not shown), 2nd of four biocide concentrations
[3] = 1st of 3 copper concentrations (value not shown), 3rd of four biocide concentrations
[4] = 1st of 3 copper concentrations (value not shown), 4th of four biocide concentrations
[5] = 2nd of 3 copper concentrations (value not shown), 1st of four biocide concentrations
[6] = 2nd of 3 copper concentrations (value not shown), 2nd of four biocide concentrations
[7] = 2nd of 3 copper concentrations (value not shown), 3rd of four biocide concentrations
[8] = 2nd of 3 copper concentrations (value not shown), 4th of four biocide concentrations
[9] = 3rd of 3 copper concentrations (value not shown), 1st of four biocide concentrations
[10] = 3rd of 3 copper concentrations (value not shown), 2nd of four biocide concentrations
[11] = 3rd of 3 copper concentrations (value not shown), 3rd of four biocide concentrations
[12] = 3rd of 3 copper concentrations (value not shown), 4th of four biocide concentrations
[13] = Gold section of Table 5, first of three gold concentrations (μM, value not given), biocide concentration 1 of 4
[14] = Gold section of Table 5, first of three gold concentrations (μM, value not given), biocide concentration 2 of 4
[15] = Gold section of Table 5, first of three gold concentrations (μM, value not given), biocide concentration 3 of 4
[16] = Gold section of Table 5, first of three gold concentrations (μM, value not given), biocide concentration 4 of 4
[17] = Gold section of Table 5, second of three gold concentrations (μM, value not given), biocide concentration 1 of 4
[18] = Gold section of Table 5, second of three gold concentrations (μM, value not given), biocide concentration 2 of 4
[19] = Gold section of Table 5, second of three gold concentrations (μM, value not given), biocide concentration 3 of 4
[20] = Gold section of Table 5, second of three gold concentrations (μM, value not given), biocide concentration 4 of 4
[21] = Gold section of Table 5, third of three gold concentrations (μM, value not given), biocide concentration 1 of 4
[22] = Gold section of Table 5, third of three gold concentrations (μM, value not given), biocide concentration 2 of 4
[23] = Gold section of Table 5, third of three gold concentrations (μM, value not given), biocide concentration 3 of 4
[24] = Gold section of Table 5, third of three gold concentrations (μM, value not given), biocide concentration 4 of 4
[25] = Silver 0.5 μM, biocide concentration 2 of 4
[26] = Silver 0.5 μM, biocide concentration 3 of 4
[27] = Silver 0.5 μM, biocide concentration 4 of 4
[28] = Silver 1.0 μM, biocide concentration 2 of 4
[29] = Silver 1.0 μM, biocide concentration 3 of 4
[30] = Silver 1.0 μM, biocide concentration 4 of 4
[31] = Silver 5.0 μM, biocide concentration 2 of 4
[32] = Silver 5.0 μM, biocide concentration 3 of 4
[33] = Silver 5.0 μM, biocide concentration 4 of 4
[34] = Copper (mM), 1st of 3 copper concentrations (head line not shown), biocide concentration 3 of 4, E. coli
[35] = Copper (mM), 1st of 3 copper concentrations (head line not shown), biocide concentration 4 of 4, E. coli
[36] = Copper (mM), 2nd of 3 copper concentrations (head line not shown), biocide concentration 3 of 4, E. coli
[37] = Copper (mM), 2nd of 3 copper concentrations (head line not shown), biocide concentration 4 of 4, E. coli
[38] = Copper (mM), 3rd of 3 copper concentrations (head line not shown), biocide concentration 3 of 4, E. coli
[39] = Copper (mM), 3rd of 3 copper concentrations (head line not shown), biocide concentration 4 of 4, E. coli
[40] = first of 3 gold concentrations, biocide concentration 4 of 4
[41] = second of 3 gold concentrations, biocide concentration 4 of 4
[42] = third of 3 gold concentrations, biocide concentration 4 of 4
[43] = Silver 0.5 μM, 3rd of four biocide concentrations, E. coli
[44] = Silver 0.5 μM, 4th of four biocide concentrations, E. coli
[45] = Silver 1.0 μM, 2nd of four biocide concentrations, E. coli
[46] = Silver 1.0 μM, 3rd of four biocide concentrations, E. coli
[47] = Silver 1.0 μM, 4th of four biocide concentrations, E. coli
[48] = Silver 5.0 μM, 2nd of four biocide concentrations, E. coli
[49] = Silver 5.0 μM, 3rd of four biocide concentrations, E. coli
[50] = Silver 5.0 μM, 4th of four biocide concentrations, E. coli

SMILES: C[n+]1ccc(-c2cc[n+](C)cc2)cc1 [methyl viologen]
- CDI (coefficient of drug interaction), copper mixed with biocide [1]: 0.85
- CDI (coefficient of drug interaction), copper mixed with biocide [2]: 0.99
- CDI (coefficient of drug interaction), copper mixed with biocide [3]: Tox
- CDI (coefficient of drug interaction), copper mixed with biocide [4]: Tox
- CDI (coefficient of drug interaction), copper mixed with biocide [5]: 0.63
- CDI (coefficient of drug interaction), copper mixed with biocide [6]: 0.77
- CDI (coefficient of drug interaction), copper mixed with biocide [7]: Tox
- CDI (coefficient of drug interaction), copper mixed with biocide [8]: Tox
- CDI (coefficient of drug interaction), copper mixed with biocide [9]: 0.61
- CDI (coefficient of drug interaction), copper mixed with biocide [10]: 0.64
- CDI (coefficient of drug interaction), copper mixed with biocide [11]: Tox
- CDI (coefficient of drug interaction), copper mixed with biocide [12]: Tox
- CDI (coefficient of drug interaction) [13]: 0.99
- CDI (coefficient of drug interaction) [14]: 1.07
- CDI (coefficient of drug interaction) [15]: 0.82
- CDI (coefficient of drug interaction) [16]: 0.08
- CDI (coefficient of drug interaction) [17]: 1.01
- CDI (coefficient of drug interaction) [18]: 1.01
- CDI (coefficient of drug interaction) [19]: 0.66
- CDI (coefficient of drug interaction) [20]: 0.78
- CDI (coefficient of drug interaction) [21]: 1.04
- CDI (coefficient of drug interaction) [22]: 0.98
- CDI (coefficient of drug interaction) [23]: 0.50
- CDI (coefficient of drug interaction) [24]: 0.28
- CDI (Silver 0.5 μM, biocide concentration 1 of 4): 0.89
- CDI [25]: 0.73
- CDI [26]: Tox
- CDI [27]: Tox
- CDI (Silver 1.0 μM, biocide concentration 1 of 4): 0.48
- CDI [28]: 0.20
- CDI [29]: Tox
- CDI [30]: Tox
- CDI (Silver 5.0 μM, biocide concentration 1 of 4): 0.07
- CDI [31]: 0.01
- CDI [32]: Tox
- CDI [33]: Tox

SMILES: Cc1onc(-c2ccccc2)c1C(=O)N[C@@H]1C(=O)N2[C@@H]1SC(C)(C)[C@@H]2C(=O)O [oxacillin]
- CDI (coefficient of drug interaction) [34]: Tox
- CDI (coefficient of drug interaction) [35]: Tox
- CDI (coefficient of drug interaction) [36]: Tox
- CDI (coefficient of drug interaction) [37]: Tox
- CDI (coefficient of drug interaction) [38]: Tox
- CDI (coefficient of drug interaction) [39]: Tox
- CDI (coefficient of drug interaction), gold + biocide [40]: Tox
- CDI (coefficient of drug interaction), gold + biocide [41]: Tox
- CDI (coefficient of drug interaction), gold + biocide [42]: Tox
- CDI [26]: Tox
- CDI [27]: Tox
- CDI [29]: Tox
- CDI [30]: Tox
- CDI [32]: Tox
- CDI [33]: Tox

SMILES: NC(=O)NN=Cc1ccc([N+](=O)[O-])o1 [5-Nitro-2-furaldehyde semicarbazone]
- CDI (coefficient of drug interaction) ([…], biocide concentration 3 of 4, E. coli): Tox
- CDI (coefficient of drug interaction) ([…], biocide concentration 4 of 4, E. coli): Tox

SMILES: CCCCCCCC[N+](C)(CCCCCCCC)CCCCCCCC.[Br-] [Methyltrioctyl NH4+ Br−]
- CDI (coefficient of drug interaction), copper mixed with biocide [1]: 1.05
- CDI (coefficient of drug interaction), copper mixed with biocide [2]: 1.22
- CDI (coefficient of drug interaction), copper mixed with biocide [3]: 1.39
- CDI (coefficient of drug interaction), copper mixed with biocide [4]: Tox
- CDI (coefficient of drug interaction), copper mixed with biocide [5]: 1.08
- CDI (coefficient of drug interaction), copper mixed with biocide [6]: 1.14
- CDI (coefficient of drug interaction), copper mixed with biocide [7]: 1.05
- CDI (coefficient of drug interaction), copper mixed with biocide [8]: Tox
- CDI (coefficient of drug interaction), copper mixed with biocide [9]: 0.87
- CDI (coefficient of drug interaction), copper mixed with biocide [10]: 0.80
- CDI (coefficient of drug interaction), copper mixed with biocide [11]: 0.44
- CDI (coefficient of drug interaction), copper mixed with biocide [12]: Tox
- CDI (coefficient of drug interaction) [13]: 1.06
- CDI (coefficient of drug interaction) [14]: 1.05
- CDI (coefficient of drug interaction) [15]: 1.00
- CDI (coefficient of drug interaction) [16]: Tox
- CDI (coefficient of drug interaction) [17]: 1.14
- CDI (coefficient of drug interaction) [18]: 0.98
- CDI (coefficient of drug interaction) [19]: 0.37
- CDI (coefficient of drug interaction) [20]: Tox
- CDI (coefficient of drug interaction) [21]: 0.96
- CDI (coefficient of drug interaction) [22]: 1.01
- CDI (coefficient of drug interaction) [23]: 0.91
- CDI (coefficient of drug interaction) [24]: Tox
- CDI (coefficient of drug interaction), silver + biocide (Silver 0.5 μM, 1st of four biocide concentrations, E. coli): 1.01
- CDI (coefficient of drug interaction), silver + biocide (Silver 0.5 μM, 2nd of four biocide concentrations, E. coli): 0.90
- CDI (coefficient of drug interaction), silver + biocide [43]: Tox
- CDI (coefficient of drug interaction), silver + biocide [44]: Tox
- CDI (coefficient of drug interaction), silver + biocide (Silver 1.0 μM, 1st of four biocide concentrations, E. coli): 1.04
- CDI (coefficient of drug interaction), silver + biocide [45]: 1.09
- CDI (coefficient of drug interaction), silver + biocide [46]: Tox
- CDI (coefficient of drug interaction), silver + biocide [47]: Tox
- CDI (coefficient of drug interaction), silver + biocide (Silver 5.0 μM, 1st of four biocide concentrations, E. coli): 1.66
- CDI (coefficient of drug interaction), silver + biocide [48]: 1.73
- CDI (coefficient of drug interaction), silver + biocide [49]: Tox
- CDI (coefficient of drug interaction), silver + biocide [50]: Tox

SMILES: Nc1n[nH]c(N)n1 [guanazole]
- CDI (coefficient of drug interaction), copper mixed with biocide [3]: Tox
- CDI (coefficient of drug interaction), copper mixed with biocide [4]: Tox
- CDI (coefficient of drug interaction), copper mixed with biocide [7]: Tox
- CDI (coefficient of drug interaction), copper mixed with biocide [8]: Tox
- CDI (coefficient of drug interaction), copper mixed with biocide [11]: Tox
- CDI (coefficient of drug interaction), copper mixed with biocide [12]: Tox
- CDI (coefficient of drug interaction) [15]: Tox
- CDI (coefficient of drug interaction) [16]: Tox
- CDI (coefficient of drug interaction) [19]: Tox
- CDI (coefficient of drug interaction) [20]: Tox
- CDI (coefficient of drug interaction) [23]: Tox
- CDI (coefficient of drug interaction) [24]: Tox
- CDI [26]: Tox
- CDI [27]: Tox
- CDI [29]: Tox
- CDI [30]: Tox
- CDI [32]: Tox
- CDI [33]: Tox

SMILES: CC1=C(C(=O)Nc2ccccc2)S(=O)(=O)CCO1 [Oxycarboxin]
- CDI (coefficient of drug interaction) [34]: Tox
- CDI (coefficient of drug interaction) [35]: Tox
- CDI (coefficient of drug interaction) [36]: Tox
- CDI (coefficient of drug interaction) [37]: Tox
- CDI (coefficient of drug interaction) [38]: Tox
- CDI (coefficient of drug interaction) [39]: Tox
- CDI (coefficient of drug interaction), gold + biocide (first of 3 gold concentrations, biocide concentration 2 of 4): Tox
- CDI (coefficient of drug interaction), gold + biocide (first of 3 gold concentrations, biocide concentration 3 of 4): Tox
- CDI (coefficient of drug interaction), gold + biocide [40]: Tox
- CDI (coefficient of drug interaction), gold + biocide (second of 3 gold concentrations, biocide concentration 2 of 4): Tox
- CDI (coefficient of drug interaction), gold + biocide (second of 3 gold concentrations, biocide concentration 3 of 4): Tox
- CDI (coefficient of drug interaction), gold + biocide [41]: Tox
- CDI (coefficient of drug interaction), gold + biocide (third of 3 gold concentrations, biocide concentration 2 of 4): Tox
- CDI (coefficient of drug interaction), gold + biocide (third of 3 gold concentrations, biocide concentration 3 of 4): Tox
- CDI (coefficient of drug interaction), gold + biocide [42]: Tox
- CDI [25]: Tox
- CDI [26]: Tox
- CDI [27]: Tox
- CDI [28]: Tox
- CDI [29]: Tox
- CDI [30]: Tox
- CDI [31]: Tox
- CDI [32]: Tox
- CDI [33]: Tox

SMILES: Cc1cc(O)cc(C)c1Cl [chloroxylenol]
- CDI (coefficient of drug interaction), copper mixed with biocide [6]: Tox
- CDI (coefficient of drug interaction), copper mixed with biocide [7]: Tox
- CDI (coefficient of drug interaction), copper mixed with biocide [8]: Tox
- CDI (coefficient of drug interaction) [15]: Tox
- CDI (coefficient of drug interaction) [16]: Tox
- CDI (coefficient of drug interaction) [19]: Tox
- CDI (coefficient of drug interaction) [20]: Tox
- CDI (coefficient of drug interaction) [23]: Tox
- CDI (coefficient of drug interaction) [24]: Tox
- CDI (coefficient of drug interaction), silver + biocide [43]: Tox
- CDI (coefficient of drug interaction), silver + biocide [44]: Tox
- CDI (coefficient of drug interaction), silver + biocide [45]: Tox
- CDI (coefficient of drug interaction), silver + biocide [46]: Tox
- CDI (coefficient of drug interaction), silver + biocide [47]: Tox
- CDI (coefficient of drug interaction), silver + biocide [48]: Tox
- CDI (coefficient of drug interaction), silver + biocide [49]: Tox
- CDI (coefficient of drug interaction), silver + biocide [50]: Tox
